# Like-named read-outs stand apart in the source and are kept apart here.
# Key:
# Assay type in all cases: biochemical
# full-length WRN helicase [1] = target: T1, full-length WRN helicase (Homo sapiens, UniProt Q14191); experiment: Radiometric helicase inhibitor assay, full-length WRN unwinding of FORKR DNA substrate; details: for remaining activity at 50 µM: read-out: % Control WRN Helicase Activity; for IC50: radiometric assay, compound 0-100 μM, read-out: IC50;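 on all read-outs here: WRN preincubated with compound 15 min at room temperature, then unwinding run 15 min at 37 °C with 2 mM ATP, relative to WRN unwinding without compound (100%)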
# T1 construct: Full length recombinant WRN [18], BLM [19], and FANCJ [20] proteins were purified from insect cells; made in house; host or cells: insect cells
# Procedure: Fifteen μL of reaction buffer was added to a microcentrifuge tube followed by the addition of 1 μL of selected compounds (0.5–100 μM final concentration) or DMSO. One μL of WRN (full length), RECQ1, FANCJ, BLM or control was added to each reaction and incubated at room temperature for 15 min. Three μL of substrate (0.5 nM FORKR and 2 mM ATP final concentrations) were added to all reactions which were incubated at 37°C for 15 min. Reactions were stopped with the addition of 20 μL of 2X STOP dye containing EDTA, glycerol, bromphenol blue and xylene cyanol. Samples were electrophoresed for 1.5 hr at 200 V on a 12% non-denaturing PAGE gel in 1X TBE Buffer.
# The compounds were tested at a single concentration of 50 μM in the radiometric helicase assay with full-length recombinant WRN protein (1 nM) and the FORKR DNA substrate (0.5 nM) as described in the Materials and Methods section.
# For each compound, we performed titrations over a wide range of concentrations with a fixed concentration of full-length WRN protein (1 nM), and quantitated unwinding as a percentage of full-length WRN unwinding of the FORKR DNA substrate (0.5 nM) in the absence of compound (Fig 6A and 6B, S3 Fig). […] In addition to determining an IC50 value for each compound, we also conducted helicase assays to determine the reversibility of inhibition by each compound tested. […] The reaction was diluted 100-fold with the addition of DNA substrate (0.5 nM final concentration) and ATP (2 mM final concentration) and unwinding was measured (Fig 7A–7D, S4 Fig). Inhibition was either classified as reversible, partially reversible, minimally reversible, or irreversible based on the ability of helicase activity to recover after dilution of the compound 100-fold.
# full-length WRN helicase [2] = target: T1, full-length WRN helicase; experiment: Radiometric helicase inhibitor reversibility assay (100-fold dilution); parameters: key to Reversibility: (-) = irreversible; (+) = minimally reversible; (++) = partially reversible; (+++) = reversible; details: for Reversibility: WRN 100 nM preincubated at 10-fold IC50, diluted 100-fold, unwinding 0-16 min; for Reversibility of inhibition (in words): full-length WRN
# Procedure: WRN (full length, 100 nM concentration) was incubated with each small molecule inhibitor at a concentration 10-fold higher than the IC50 for that inhibitor, in a 10 μL reaction at room temperature. 1.5 μL of this reaction was added to 148.5 μL of reaction salts with 2 mM ATP, 0.5 nM FORKR reducing the full length WRN concentration to 1 nM and the drug concentration to 10-fold less than its IC50. Reactions were placed at 37°C and 20 μL of reaction were removed at specific intervals (0–16 min) and quenched with 20 μL of 2X STOP dye containing EDTA, glycerol, bromphenol blue and xylene cyanol. Samples were electrophoresed for 1.5 hr at 200 V on a 12% non-denaturing PAGE gel in 1X TBE Buffer.
# Eighteen compounds were selected based on potency of inhibition in both the screening and radiometric assays, and exclusion of compounds with undesired chemical features. For each compound, we performed titrations over a wide range of concentrations with a fixed concentration of full-length WRN protein (1 nM), and quantitated unwinding as a percentage of full-length WRN unwinding of the FORKR DNA substrate (0.5 nM) in the absence of compound (Fig 6A and 6B, S3 Fig). […] In addition to determining an IC50 value for each compound, we also conducted helicase assays to determine the reversibility of inhibition by each compound tested. Details of the assay can be found in the Materials and Methods section, but briefly 100 nM WRN was incubated with each compound at a concentration 10-fold higher than its IC50 value. The reaction was diluted 100-fold with the addition of DNA substrate (0.5 nM final concentration) and ATP (2 mM final concentration) and unwinding was measured (Fig 7A–7D, S4 Fig). Inhibition was either classified as reversible, partially reversible, minimally reversible, or irreversible based on the ability of helicase activity to recover after dilution of the compound 100-fold. Table 2 summarizes the IC50 values and reversibility for each compound and includes IC50 values obtained from the screens for comparison.
# [3] = target: T2, GST-WRN500-946 helicase domain fragment (Homo sapiens, UniProt Q14191); experiment: High-throughput fluorometric helicase screen, PubChem AID 651768; details: initial qHTS; 20 nM GST-WRN500-946; 100 nM FORKF; NA = Not Active; read-out: IC50 (μM) Assay ID 651768
# T2 construct: made in house; host or cells: insect cells
# Procedure: (§1) The structures of the members of this collection are available in the PubChem portal https://pubchem.ncbi.nlm.nih.gov/. For both the 350,000 small molecule collection and the LOPAC^1280 screens, 3 μL of GST-WRN500-946 or reaction buffer only were dispensed using a solenoid-valve nanoliter dispenser into a black 1536-well plate (Greiner). Twenty three nL of each serially diluted compound (0.08–50 μM for the LOPAC screen and 0.003–114 μM for the larger library screen) or control were added to each well using a Kalypsys pintool equipped with a 1536-pin array. Plates were incubated at room temperature for 15 min, followed by initiation of the reactions via the addition of 1 μL of substrate (100 nM FORKF and 2 mM ATP final concentrations). Plates were transferred to a ViewLux high-throughput CCD imager and fluorescence was measured in kinetic mode using an excitation filter of 525 nm and emission filter of 598 nm.
# (§2) Zʹ factor, a measure for assay quality control was calculated using the formula Z′ = 1−(3σS^++3σS^−)∕|μS^+−μS^−| as described previously. In this formula, 3σS^+ represents 3 standard deviations from the mean of positive signals while 3σS^− represents 3 standard deviations from the mean of negative signals. μS^+ and μS^− represent the mean of positive signals and negative signals respectively. Percent activity was derived using in-house software (http://tripod.nih.gov/curvefit/). Dose-response curves were classified as described previously.
# (§3) A collection of approximately 350,000 compounds is available for screening which has been assembled from multiple sources to provide diverse chemical scaffolds with known purity, identity and solubility. To perform the high-throughput screen of these compounds, we needed to produce approximately 50 milligrams of recombinant WRN helicase fragment. To accomplish this, we cloned the helicase domain fragment into several plasmids for either insect cell or bacterial expression to optimize expression and yield. We selected expression plasmids for insect cell expression with either a GST or MBP tag (image A in S1 Fig) and purified the protein (image B in S1 Fig). The GST-WRN500-946 fragment isolated from insect cells was used in the high throughput screen with the conditions described in Fig 2C (20 nM GST-WRN500-946, 100 nM FORKF DNA substrate) and a summary of the results can be found on PubChem (National Center for Biotechnology Information. PubChem BioAssay Database; Assay Identifier (AID) = 651768, https://pubchem.ncbi.nlm.nih.gov/bioassay/651768). […] To verify the active compounds, approximately 600 hit molecules were retested in a confirmatory screen also found on PubChem (National Center for Biotechnology Information. PubChem AID = 720497, https://pubchem.ncbi.nlm.nih.gov/bioassay/720497). Of these, a little less than four hundred compounds were confirmed as active compounds.
# [4] = target: T3, WRN helicase domain fragment (Homo sapiens, UniProt Q14191); experiment: WRN-hel-f2 protocol qHTS confirmatory (15 compound confirmatory assay); details: NA = Not Active
# T3 construct: GST (N); made in house
# Procedure: as §1
# [5] = target: T2, GST-WRN500-946 helicase domain fragment; experiment: Confirmatory fluorometric helicase screen, PubChem AID 720497; details: 20 nM GST-WRN500-946, 100 nM FORKF, NA = Not Active, read-out: IC50 (μM) Assay ID 720497
# Procedure: as §1, §2, §3
# [6] = 50 μM compound, full-length WRN 1 nM, FORKR 0.5 nM
# [7] = full-length WRN 1 nM, FORKR 0.5 nM
# T2 sequence (Q14191 500-946): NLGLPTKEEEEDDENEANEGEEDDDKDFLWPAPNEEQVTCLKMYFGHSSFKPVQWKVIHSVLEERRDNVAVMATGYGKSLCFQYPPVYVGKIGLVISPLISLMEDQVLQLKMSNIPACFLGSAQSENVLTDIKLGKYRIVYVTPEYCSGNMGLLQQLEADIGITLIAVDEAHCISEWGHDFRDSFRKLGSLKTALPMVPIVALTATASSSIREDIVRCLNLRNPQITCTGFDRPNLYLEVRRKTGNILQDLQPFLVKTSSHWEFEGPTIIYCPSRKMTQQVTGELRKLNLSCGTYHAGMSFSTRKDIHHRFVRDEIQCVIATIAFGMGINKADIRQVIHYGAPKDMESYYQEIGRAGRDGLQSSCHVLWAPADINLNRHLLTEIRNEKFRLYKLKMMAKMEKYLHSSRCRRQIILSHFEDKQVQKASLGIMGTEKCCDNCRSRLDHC
# T3 sequence (Q14191 500-946): as above
# T1 sequence (Q14191 whole entry): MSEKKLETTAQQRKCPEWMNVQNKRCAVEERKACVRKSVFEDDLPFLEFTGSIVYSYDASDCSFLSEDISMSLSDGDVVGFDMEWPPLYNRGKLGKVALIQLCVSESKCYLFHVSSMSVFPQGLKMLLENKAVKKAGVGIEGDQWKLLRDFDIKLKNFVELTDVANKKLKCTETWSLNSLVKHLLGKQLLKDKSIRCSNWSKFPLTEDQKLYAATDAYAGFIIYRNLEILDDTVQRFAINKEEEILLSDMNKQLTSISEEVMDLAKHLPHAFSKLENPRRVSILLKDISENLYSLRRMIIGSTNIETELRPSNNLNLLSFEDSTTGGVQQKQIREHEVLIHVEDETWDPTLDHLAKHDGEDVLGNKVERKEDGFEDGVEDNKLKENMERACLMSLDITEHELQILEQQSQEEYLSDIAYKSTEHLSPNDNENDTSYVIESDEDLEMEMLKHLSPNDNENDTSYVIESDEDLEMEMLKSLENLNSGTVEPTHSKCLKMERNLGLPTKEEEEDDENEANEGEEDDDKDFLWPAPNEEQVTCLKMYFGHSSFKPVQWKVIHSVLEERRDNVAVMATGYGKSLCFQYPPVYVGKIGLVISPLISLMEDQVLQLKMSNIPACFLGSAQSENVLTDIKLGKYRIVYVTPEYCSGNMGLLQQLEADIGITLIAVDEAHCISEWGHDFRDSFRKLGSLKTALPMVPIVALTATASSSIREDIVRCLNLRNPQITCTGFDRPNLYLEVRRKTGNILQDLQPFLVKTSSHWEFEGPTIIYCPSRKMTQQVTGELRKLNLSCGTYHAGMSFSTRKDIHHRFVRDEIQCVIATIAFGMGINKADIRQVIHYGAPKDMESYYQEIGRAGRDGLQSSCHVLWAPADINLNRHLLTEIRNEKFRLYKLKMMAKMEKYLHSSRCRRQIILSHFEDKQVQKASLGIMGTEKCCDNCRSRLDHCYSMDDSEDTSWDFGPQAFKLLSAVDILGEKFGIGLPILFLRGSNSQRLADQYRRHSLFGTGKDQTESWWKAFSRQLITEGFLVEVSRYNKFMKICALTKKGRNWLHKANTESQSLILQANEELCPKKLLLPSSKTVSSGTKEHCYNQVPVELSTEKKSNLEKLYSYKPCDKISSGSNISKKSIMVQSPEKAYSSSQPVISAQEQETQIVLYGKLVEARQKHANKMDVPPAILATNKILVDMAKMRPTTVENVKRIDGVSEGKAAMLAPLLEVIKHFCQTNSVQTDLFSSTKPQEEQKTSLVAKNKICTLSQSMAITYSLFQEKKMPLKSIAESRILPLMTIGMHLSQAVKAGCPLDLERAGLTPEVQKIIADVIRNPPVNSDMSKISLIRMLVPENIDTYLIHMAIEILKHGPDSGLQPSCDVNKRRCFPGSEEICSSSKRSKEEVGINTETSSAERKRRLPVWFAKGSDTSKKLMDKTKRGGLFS
SMILES,remaining activity at 50 µM (full-length WRN helicase [1]; [6]) [%],IC50 (full-length WRN helicase [1]; [7]) [µM],Reversibility (full-length WRN helicase [2]),IC50 [3] [µM],IC50 [4] [µM],other results
CN(C)CC(C(=O)Cc1ccccc1)c1ccccc1 (centres unmarked) [MLS002608145-02],,,,,,remaining activity at 50 µM (full-length WRN helicase [1]): 93%
CCc1nnc(NC(=O)c2cc(-c3ccc(C)o3)nc3ccccc23)s1 [MLS002179845-02],93,,,,,
Oc1ccc(C2=CSc3nnc(-c4ccco4)n3N2)cc1O [MLS000551562-03],92,,,,,
COc1ccc(-c2cc(C(F)(F)F)nc([S+](=O)([O-])CCC(=O)Nc3ccc(C)cc3)n2)cc1 [NCGC00317517-02],,,,,,remaining activity at 50 µM (full-length WRN helicase [1]): 93%
CCCN(CCC)CCCNC(=O)c1cc2c(-c3ccc(OC)c(OC)c3)nn(C)c2s1 [NCGC00108865-03],109,,,,,
Cc1ccc(N2CCN(c3cnn(-c4nc5ccccc5s4)c(=O)c3Cl)CC2C)cc1 (centres unmarked) [NCGC00295201-02],9,10,+++,35.4,25.1,
Cc1ccc(CN(C)C(=O)CCc2nc(O)c3c4c(sc3n2)CCCC4)o1 [MLS001160745-02],8,11,+,44.6,22.4,IC50 [5]: 9.6 µM
COc1ccc(N2CCN(C(=O)Cc3c(C(=O)O)c(C)cn3C)CC2)cc1 [NCGC00137930-02],99,,,,,
CC(C)(C)c1ccc(-c2nc(SCCCOc3ccccc3)n3[nH]c(=O)cc3n2)cc1 [NCGC00128735-02],5,5,+++,50.1,28.1,
Cc1cc(OC(C)C(=O)Nc2cccc(-c3nc4ccccc4o3)c2)cc(C)c1Cl (centres unmarked) [NCGC00119189-02],65,,,,,
COc1ccc(N[S+](=O)([O-])c2cc(C(=O)Nc3ccc4nc(C)sc4c3)ccc2C)cc1 [NCGC00348187-01],,,,,,remaining activity at 50 µM (full-length WRN helicase [1]): 83%
O=C(Nc1nncs1)c1cc(-c2ccco2)nc2ccccc12 [MLS002249549-02],69,,,,,
COC(=O)c1cc(NC(=O)c2ccc3c(c2)NC(=O)c2ccccc2S3)cc(C(=O)OC)c1 [NCGC00113056-02],10,2,+,16.8,1.26,IC50 [5]: 13.6 µM
Cc1nn(-c2ccccc2)c2nc(-c3ccco3)cc(C(=O)O)c12 [MLS000060726-02],100,,,,,
CC1=C(C(=O)Nc2ccccc2)C(c2ccc[nH]2)n2ncnc2N1 (centres unmarked) [NCGC00132363-04],30,25,-,11.9,,IC50 [5]: 7.6 µM
CCc1ccc(NC(=O)c2ccc3c(O)c([S+](=O)([O-])c4ccc(Cl)cc4)c(=O)[nH]c3c2)cc1 [NCGC00123016-02],,50,+++,26.6,39.8,remaining activity at 50 µM (full-length WRN helicase [1]): 20%
COc1ccccc1N1CCN(C(=O)Cc2c(C(=O)O)c(C)cn2C)CC1 [NCGC00137902-02],113,,,,,
Cc1ccc(-c2nc(SCc3ccc(Br)cc3)n3[nH]c(=O)cc3n2)cc1 [NCGC00129037-02],7,9,-,16.8,12.5,IC50 [5]: 13.6 µM
COc1ccccc1Nc1ccc2c(O)cc(S(=O)(=O)O)cc2c1 [MLS002608028-02],3,2,+++,2.7,0.35,IC50 [5]: 6.1 µM
Cc1cn(C)c(CC(=O)N2CCN(c3ccccc3F)CC2)c1C(=O)O [NCGC00137904-02],108,,,,,
Cc1ccc(C(=O)Nc2nnc([S+](=O)([O-])N(C)Cc3ccco3)s2)cc1 [NCGC00120906-02],,9,-,37.6,5.6,remaining activity at 50 µM (full-length WRN helicase [1]): 33%; Reversibility of inhibition (in words) (full-length WRN helicase [2]): irreversible
O=c1[nH]c2ccccc2n2c(-c3ccccc3)nnc12 [MLS000540817-03],99,,,,,
Cc1ccc(C)c(NC(=O)CN(C)C(=O)c2cccc(-n3cccc3)c2)c1 [MLS001161412-02],5,,,,,
Cc1cc(OCC(=O)Nc2ccc(N3CCN(C(=O)c4ccco4)CC3)cc2)cc(C)c1Cl [MLS000582679-02],64,,,,,
Oc1c(C(c2ccccc2)N2CCOCC2)ccc2ccccc12 (centres unmarked) [MLS002694128-02],0,,,,,
O=C(O)c1ccccc1-c1ccc(/C=C/c2cc(C(F)(F)F)nc(O)n2)o1 [MLS000715904-02],76,,,,,
CN(Cc1ccco1)[S+](=O)([O-])c1nnc(NC(=O)c2cccc(Cl)c2)s1 [NCGC00120928-02],13,15,-,39.8,12.5,Reversibility of inhibition (in words) (full-length WRN helicase [2]): irreversible
COc1ccc2nc(O)c(-c3noc(-c4cccs4)n3)cc2c1 [NCGC00307457-02],42,,,,,

# — PMC6326523, “A high-throughput screen to identify novel small molecule inhibitors of the Werner Syndrome Helicase-Nuclease (WRN)” (PLoS ONE, 2019)
